Test results reported in US8114442B2, “Transdermal pharmaceutical delivery compositions” (Queen Mary & Westfield College, priority 2008, dated 2012).

Legend:
[1] = healthy 70 kg-adult; cited from earlier work
[2] = Pilot studies of local anaesthesia by pin-prick and thermal sensitivity testing; type: in vivo, human; conditions: applied directly to the skin without NO-generating gel; within 20 minutes
Source text: The anaesthetic used in these initial studies was xylocalne as it was readily available in a pharmaceutical form for mixing.

SMILES | generally accepted safe dosage for topical anaesthesia [1] [mg] | level of anaesthesia [2]
COC(=O)[C@H]1[C@@H](OC(=O)c2ccccc2)C[C@@H]2CC[C@H]1N2C [cocaine] | 200 | 
CCN(CC)CC(=O)Nc1c(C)cccc1C [lidocaine] | 750 | 
CCCCNc1ccc(C(=O)OCCN(C)C)cc1 [tetracaine] | 50 | 
CCN(CC)CC(=O)Nc1c(C)cccc1C [xylocalne] |  | failed to produce any discernible level of anaesthesia
